Marks after values point to notes of the source that are not given here. Where a SMILES comes first, the peptide text is derived from it. [ ]: non-standard residue; d: D form. Tyr(3-I) = N[C@@H](Cc1ccc(O)c(I)c1)C(=O)O; Nle = CCCC[C@H](N)C(=O)O
Columns and labels:
[1] = molecular target: S134 multiple chimeric melanocortin receptor; assay: Radioligand binding saturation, chimera S134; settings: COS-1, S134, S-set, parts A/B/C MC1/MC3/MC4, pK ± SD
[2] = molecular target: F413 multiple chimeric melanocortin receptor; assay: Radioligand binding saturation, chimera F413; settings: COS-1, F413, F-set, parts A/B/C MC4/MC1/MC3, pK ± SD
MC4 receptor = settings: saturation; MC4 wt.; ref [31]; cited from earlier work
Source text: (§1) Table 1 Affinities of multiple chimeric melanocortin receptors.

MC5 receptor = settings: saturation; MC5 wt.; ref [31]; cited from earlier work
Source text: as §1

MC1 receptor = settings: saturation; MC1 wt.; ref [31]; cited from earlier work
Source text: as §1

MC3 receptor = settings: saturation; MC3 wt.; ref [31]; cited from earlier work
Source text: as §1

[3] = molecular target: F354 multiple chimeric melanocortin receptor; assay: Radioligand binding saturation, chimera F354; settings: COS-1, F354, F-set, parts A/B/C MC3/MC5/MC4, pK ± SD
[4] = molecular target: S531 multiple chimeric melanocortin receptor; assay: Radioligand binding saturation, chimera S531; settings: COS-1, S531, S-set, parts A/B/C MC5/MC3/MC1, pK ± SD
[5] = molecular target: F451 multiple chimeric melanocortin receptor; assay: Radioligand binding saturation, chimera F451; settings: COS-1, F451, F-set, parts A/B/C MC4/MC5/MC1, pK ± SD
[6] = molecular target: F514 multiple chimeric melanocortin receptor; assay: Radioligand binding saturation, chimera F514; settings: COS-1, F514, F-set, parts A/B/C MC5/MC1/MC4, pK ± SD

## CCCC[C@H](NC(=O)[C@H](CO)NC(=O)[C@H](Cc1ccc(O)c(I)c1)NC(=O)[C@H](CO)NC(C)=O)C(=O)NCC(=O)N[C@@H](Cc1c[nH]cn1)C(=O)N[C@H](Cc1ccccc1)C(=O)N[C@@H](CCCNC(=N)N)C(=O)N[C@@H](Cc1c[nH]c2ccccc12)C(=O)NCC(=O)N[C@@H](CCCCN)C(=O)N1CCC[C@H]1C(=O)N[C@H](C(N)=O)C(C)C [^125I-NDP-MSH, [^125I-Tyr^2, Nle^4, D-Phe^7]-α-MSH] (Ac-S[Tyr(3-I)]S[Nle]GH[dF]RWGKPV-NH2)
[1]
  pK (Kd): 9.30 ± 0.26
[2]
  pK (Kd): 8.62 ± 0.16
MC4 receptor
  pK (Kd): 8.64^a
MC5 receptor
  pK (Kd): 8.54^a
MC1 receptor
  pK (Kd): 9.96^a
MC3 receptor
  pK (Kd): 9.40^a
[3]
  pK (Kd): 8.80 ± 0.16
[4]
  pK (Kd): 8.96 ± 0.35
[5]
  pK (Kd): 9.06 ± 0.31
[6]
  pK (Kd): 9.19 ± 0.21

From paper PMC1435945, “Prediction of indirect interactions in proteins” (BMC Bioinformatics, 2006)
